In ChEMBL document CHEMBL4732087, “Structure-activity relationship (SAR) studies of N-(3-methylpyridin-2-yl)-4-(pyridin-2-yl)thiazol-2-amine (SRI-22819) as NF-ҡB activators for the treatment of ALS” (Eur J Med Chem, 2021):
Converted amounts (≈) assume the structure as drawn.

Assays:
[1] = Kinetic solubility of compound at pH 7.4 by shake flask method; type: physicochemical; conditions: buffer, read-out: Kinetic_solubility
[2] = Drug concentration in CD1 mouse plasma at 1 mg/kg, iv measured at 0.5 hrs by LC-MS/MS analysis; type: ADME, organism-based
[3] = Drug concentration in CD1 mouse brain at 1 mg/kg, iv measured at 0.5 hrs by LC-MS/MS analysis; type: ADME, organism-based; conditions: read-out: Ct
[4] = Drug concentration in CD1 mouse brain at 1 mg/kg, iv measured at […] by LC-MS/MS analysis; type: ADME, organism-based; conditions: time 0.25 hrs, read-out: Ct
[5] = Ratio of drug concentration in brain to plasma in CD1 mouse at 1 mg/kg, iv measured at […] by LC-MS/MS analysis; type: ADME, organism-based; conditions: time 0.25 hrs
[6] = Drug concentration in CD1 mouse plasma at 1 mg/kg, iv measured at […] by LC-MS/MS analysis; type: ADME, organism-based; conditions: time 0.25 hrs
[7] = Ratio of drug concentration in brain to plasma in CD1 mouse at 1 mg/kg, iv measured at 0.5 hrs by LC-MS/MS analysis; type: ADME, organism-based
[8] = Cmax in CD1 mouse at 5 mg/kg, po by LC-MS/MS analysis; type: ADME, organism-based; design: route oral, dose 5 mg/kg; conditions: in vivo
[9] = Oral bioavailability in CD1 mouse at 5 mg/kg by LC-MS/MS analysis; type: ADME, organism-based; conditions: in vivo

Fc1cccnc1Nc1nc(-c2ccccn2)cs1
solubility kinetic [1]: 45.4 µM (≈ 12.4 µg/mL)

O=C(O)c1cccc(-c2noc(-c3ccccc3F)n2)c1
solubility kinetic [1]: 70.5 µM (≈ 20 µg/mL)

NCc1cccc(-c2cnc(Nc3ccc(F)cc3)o2)c1
concentration at 0.5 h [2]: 21 ng/mL | concentration at 0.5 h [3]: 297 ng/g | concentration at […] [4]: 473 ng/g | Kp at […] [5]: 14.5 | concentration at […] [6]: 32.8 ng/mL | Kp at 0.5 h [7]: 14.3 | solubility kinetic [1]: 50.8 µM (≈ 14.4 µg/mL)

COC(=O)c1ccc(-c2cnc(Nc3ccccc3F)o2)cc1
solubility kinetic [1]: < 1 µM

O=C(O)c1cccc(-c2cnc(Nc3ccccc3F)o2)c1
Cmax [8]: 92 ng/mL | bioavailability [9]: 15.6%

O=C(O)c1cccc(-c2cnc(-c3ccccc3F)o2)c1
solubility kinetic [1]: 69.5 µM (≈ 19.7 µg/mL)

COC(=O)c1cccc(-c2cnc(Nc3ccc(F)cc3)o2)c1
solubility kinetic [1]: < 1 µM

CN(c1ccc(F)cc1)c1ncc(-c2cccc(C(=O)O)c2)o1
concentration at 0.5 h [2]: 529 ng/mL | concentration at 0.5 h [3]: 7.27 ng/g | concentration at […] [4]: 16.4 ng/g | Kp at […] [5]: 0.0213 | concentration at […] [6]: 788 ng/mL | Kp at 0.5 h [7]: 0.0137 | solubility kinetic [1]: 277 µM (≈ 86.5 µg/mL)

O=C(O)c1cccc(-c2csc(Nc3ccccc3)n2)c1
solubility kinetic [1]: 70.2 µM (≈ 20.8 µg/mL)

Fc1cccc(-c2csc(Nc3ccccc3F)n2)c1
solubility kinetic [1]: < 1 µM

COc1cccnc1Nc1nc(-c2ccccn2)cs1
solubility kinetic [1]: 1.2 µM (≈ 0.341 µg/mL)

O=C(O)c1cccc(-c2cnc(Nc3ccc(F)cc3F)o2)c1
solubility kinetic [1]: 69 µM (≈ 21.8 µg/mL)

Fc1ccccc1Nc1nc(-c2ccccc2)cs1
solubility kinetic [1]: < 1 µM

O=C(O)c1cccc(-c2nc(Nc3ccccc3F)cs2)c1
solubility kinetic [1]: > 100 µM

O=C(O)c1cccc(-c2csc(Nc3ccc(F)cc3)n2)c1
solubility kinetic [1]: 77.7 µM (≈ 24.4 µg/mL)

CNC(=O)c1cccc(-c2cnc(Nc3ccc(F)cc3)o2)c1
solubility kinetic [1]: 3.1 µM (≈ 0.965 µg/mL)

Nc1cccc(-c2cnc(Nc3ccc(F)cc3)o2)c1
solubility kinetic [1]: 15.2 µM (≈ 4.09 µg/mL)

OCc1cccc(-c2csc(Nc3ccccc3F)n2)c1
solubility kinetic [1]: 30.9 µM (≈ 9.28 µg/mL)

Cc1noc(-c2cccc(-c3cnc(Nc4ccc(F)cc4)o3)c2)n1
concentration at 0.5 h [2]: 74.4 ng/mL | concentration at 0.5 h [3]: 357 ng/g | concentration at […] [4]: 821 ng/g | Kp at […] [5]: 6.93 | concentration at […] [6]: 119 ng/mL | Kp at 0.5 h [7]: 4.81

CC(=O)Nc1cccc(-c2cnc(Nc3ccc(F)cc3)o2)c1
solubility kinetic [1]: 5 µM (≈ 1.56 µg/mL)

O=C(O)c1cccc(-c2csc(Nc3ccccc3F)n2)c1
Cmax [8]: 101 ng/mL | bioavailability [9]: 26.6% | solubility kinetic [1]: 80.9 µM (≈ 25.4 µg/mL)

CNC(=O)c1cccc(-c2cnc(N(C)c3ccc(F)cc3)o2)c1
concentration at 0.5 h [2]: 31.1 ng/mL | concentration at 0.5 h [3]: 30.9 ng/g | concentration at […] [4]: 200 ng/g | Kp at […] [5]: 1.21 | concentration at […] [6]: 164 ng/mL | Kp at 0.5 h [7]: 1.02 | solubility kinetic [1]: 60.4 µM (≈ 19.7 µg/mL)

O=C(O)c1ccc(-c2csc(-c3ccccc3F)n2)cc1
solubility kinetic [1]: 38.4 µM (≈ 11.5 µg/mL)

Cc1cccnc1Nc1ncc(-c2ccccn2)o1
solubility kinetic [1]: 72.5 µM (≈ 18.3 µg/mL)

O=C(O)c1cccc(-c2csc(-c3ccccc3F)n2)c1
solubility kinetic [1]: 55.2 µM (≈ 16.5 µg/mL)

COC(=O)c1cccc(-c2cnc(Nc3cccc(F)c3)o2)c1
solubility kinetic [1]: < 1 µM

COc1cccc(-c2csc(Nc3ccccc3F)n2)c1
solubility kinetic [1]: 49.3 µM (≈ 14.8 µg/mL)
